# According to patent publication US20180024136A1, “Development of ABCG2-Sensitive Fluorescent Probe For Isolation of ABCG2low Neural Stem/Progenitor Cells” (National University of Singapore, priority 2015, published 2018):
# How the values were obtained:
# NS-5 cells [1] = assay: DOFLA screening: live cell staining of MEF, mESC, NS5 and differentiated NS5; format: cell-based, mouse; conditions: 1 μM, 1 hour, NS5, D-NS5
# Experimental: The screening platform was composed of mouse embryonic fibroblast (MEF), mouse embryonic stem cells (mESC), NS5 and differentiated NS5 (D-NS5) (FIG. 4). A derivate from the CF library was selected having eleven saturated carbon chain (CF-C11), named as compound of designation green 13 (CDg13, λabs/λem=520/553 nm; quantum yield=0.82) (FIG. 4A, Table 3). […] To characterize the subcellular target of the CDg13 probe, the image of CDg13 using confocal microscopy was analyzed. The CDg13 stained organelle was clearly merged with the staining of a molecular probe that targeted endoplasmic reticulum (ER), but not with Golgi, lysosome, and mitochondria targeted probes (FIG. 4C). The value of co-localization with ER was appeared as 0.97 on both of Pearson's Collection and Mander's overlap, whereas other organelle markers were below 0.83.
# Screening of fluorescent probes of DOFL was conducted using high-throughput imaging analysis as previously described^7.
# Hoechst 33342 (2 μM) and CDg13 (1 μM) were added to the cell culture medium. After incubation for 1 hour, culture media were changed with BSA-free medium to maintain CDg13 staining. […] The subcellular staining was observed under confocal microscope and their co-localizations were analyzed by Pearson's Collection and Mander's overlap using NIS-Elements software of Eclipse Ti microscope (Nikon).
# NS-5 cells [2] = assay: Subcellular co-localization with organelle trackers by confocal microscopy; format: cell-based, mouse
# Experimental: Hoechst 33342 (2 μM) and CDg13 (1 μM) were added to the cell culture medium. After incubation for 1 hour, culture media were changed with BSA-free medium to maintain CDg13 staining. The organelle specific chemical probes, ER-Tracker™ Red, BODIPY® TR Ceramide, LysoTracker® Red DND-99 and MitoTracker® Deep Red FM, were used to stain endoplasmic reticulum, Golgi apparatus, lysosome and mitochondria, respectively according to manufacturer's instructions (Molecular Probe). The subcellular staining was observed under confocal microscope and their co-localizations were analyzed by Pearson's Collection and Mander's overlap using NIS-Elements software of Eclipse Ti microscope (Nikon).
# NS-5 cells stained with CDg13, Hoechst33342 and/or organelle markers were observed using A1R+si confocal microscope (Nikon) within 1 hour after staining. The live NS-5 cells were loaded into a pre-heated plate with supplemented 5% CO2. Fast scanning less than 250 ms with 4 times scan were used to prevent phototoxicity onto the cells.
# [3] = tested on: E14.5 mouse embryonic brain cells; assay: Neurosphere formation of FACS-sorted E14.5 embryonic brain cells; format: cell-based; conditions: 6 days culture, >50 μm diameter, 10,000 cells/well
# Description: For the counting of the number of neurosphere, we selected 6 days-cultured neurospheres having larger than 50 μm of diameter. The whole neurospheres in a well were counted to reduce random counting error using EVOS microscope (Advanced Microscopy Group).
# E14.5 embryos were obtained from C57BL/6 pregnant mice. Cerebral cortices were removed and triturated into single-cell suspension by digestion of dissected tissues with StemPro® Accutase® (Invitrogen) and filtered through 40 μm nylon mesh. The brain cells were collected by centrifugation with 400×g for 3 min and resuspended in neurosphere growth medium [DMEM/F12 supplemented with 2% B27 (without vitamin A), bFGF (10 ng/ml), EGF (20 ng/ml), 1× anti-anti]. The cells were stained for 1 hour with 1 μM of CDg13 in neurosphere growth medium. After collecting cells by centrifuge as described above, the cells were resuspended to BSA-free DMEM (phenol red free) and added propidium iodide (PI) at a concentration of 1 μg/ml to distinguish dead cells. FACS sorting was performed using the MoFlo XDP cell sorter (Beckman Coulter). Cells were sorted by pre-gating with FSC/SSC properties to exclude small debris having FSC^low/SSC^low. To isolate CDg13 stained cell population, we used a 488 nm laser excitation and a 529/28 BP filter to collect emitted light. Dead cells stained by PI were detected with a 488 nm excitation and a 620/29 BP emission. […]
# Abcg2 = assay: CDg13 staining of Abcg2 knockdown D-NS5 cells; format: cell-based, mouse; conditions: D-NS5, siAbcg2 versus controls, 1 hour staining
# Experimental: FIGS. 9A-9D show gene expression of ABC transporters: (A) undifferentiated (NS5) and 3-days differentiated NS5 (D-NS5), (B) the mRNA expression of the indicated ABC transporters were analyzed by qRT-PCR using total RNA from control and Abcg2-targeted siRNA transfected D-NS5 cells (N=3), and (C) and (D) negative (−) control siRNA (siCon) and Abcg2-targeted siRNA (siAbcg2) treated D-NS5 cells were stained with CDg13 for 1 hour, representative cells image (C) and the intensity staining of CDg13 (D) are shown (N=3) (data were normalized by β-actin expression and represented as relative fold, all values are means±SEM, *, p<0.05; **, p<0.01, unpaired two-tailed Student's T-test was used to calculate statistical significance)(Bar in (C): 100 μm).
# siRNAs targeted to mouse ABCG2 gene and non-targeted control (Santa Cruz) were transiently introduced to 2 days differentiated NS-5 cells by using RNAiMAX (Invitrogen). We used 20 nM of siRNA and 3 μl of RNAiMAX for transfecting one well of 12-well plate (70-80% confluence with cells). Transfection efficiency in the condition was more than 90% as measured by fluorescence non-targeted siRNA. The levels of RNA and their analysis were performed after 3 days of transfection.
smiles,measurement,setting,value
CCCCCCCCCN(CCCCCCCCC)C(=O)c1ccc(-c2c3cc(Cl)c(=O)cc-3oc3cc(O)c(Cl)cc23)cc1 [CDg13],cell type staining selectivity,NS-5 cells [1],"preferentially stains undifferentiated NS-5 cells, a NSPC line, but not other cell types"
same,co-localization with other organelle markers,"NS-5 cells [2]; Golgi, lysosome, mitochondria trackers",below 0.83
same,co-localization with ER (Pearson's Collection and Mander's overlap),"NS-5 cells [2]; live NS-5 cells, ER tracker",0.97
same,number of neurospheres of CDg13^bright cells compared to CD133^high cells,[3],1.5 fold
same,number of neurospheres of CDg13^bright cells compared to unsorted brain cells,[3],5.9 fold
same,CDg13 staining increase by Abcg2 knockdown,Abcg2,around 2 fold
